In paper PMC12677653, “Inhibition of Tumor Lipogenesis and Growth by Peptide‐Based Targeting of SREBP Activation” (Advanced Science, 2025):

What was measured:
[1] = parameters: species or system ICR male mice; settings: mouse, in vivo, iv, 10 mg/kg
Protocol: Figure 2 LNPs with a 1:1 ratio of TAT to cRGD effectively accumulate in tumor tissues. a) Schematic illustration of LNP composition. b,c) Biodistribution analysis of differently sized LNPs in Huh7 tumor‐bearing BALB/c‐nude mice (n = 3). (b) In vivo fluorescence imaging at 8, 12, 24, and 48 h post‐intravenous injection (10 mg kg^−1). The arrows indicate the tumor site. (c) Ex vivo fluorescence imaging of tumors and major organs harvested 48 h post‐injection. d,e) Optimization of TAT/cRGD peptide coating ratios for tumor‐targeted LNPs (n = 3). (d) In vivo fluorescence imaging at 12, 24, and 48 h post‐injection. The arrows indicate the tumor site. (e) Ex vivo fluorescence imaging of tumors and organs at 48 h. f) Pharmacokinetic profile of LNP@Insig1/2 loop 1 peptide versus free peptide (Insig1/2 loop 1 peptide) following intravenous administration in ICR mice (n = 3, 10 mg kg^−1). Plasma concentration‐time curves were quantified, and pharmacokinetic parameters were calculated: AUC (0–t) (h·ng mL^−1) and AUC (0–∞) (h·ng mL^−1). Data are expressed as mean ± SD (n = 3). Statistical significance was determined by one‐way analysis of variance (ANOVA). * p < 0.05, ** p < 0.01, *** p < 0.001, **** p < 0.0001, ns, no significance. TEXT PRINTED IN THE PICTURE: (f) Peptide: Tlast (h): 0.500±0; T1/2 (h): 0.084±0.0143; AUC(0-t) (h*ng/mL): 326±71.8; AUC(0-∞)(h*ng/mL): 331±73.0; Cl(L/kg/min): 0.518±0.109 | (f) LNP@Insig1/2 loop1 peptide: Tlast (h): 5.00±1.155; T1/2 (h): 0.724±0.183; AUC(0-t) (h*ng/mL): 4928±1425; AUC(0-∞)(h*ng/mL): 4955±1422; Cl(L/kg/min): 0.0337±0.0191 DOUBTS OF THE COPYIST ABOUT THIS PICTURE: Peptide, T1/2 (h): 0.084±0.0143, small print, 8 or 6 and 3 or 5 not certain / Peptide, AUC(0-t): 326±71.8, small print, 6 or 8 not certain / Peptide, AUC(0-∞): 331±73.0, small print, 3 or 8 not certain / Peptide, Cl: 0.518±0.109, small print, 8 and 9 not certain / LNP@Insig1/2 loop1 peptide, T1/2 (h): 0.724±0.183, small print, 8 and 3 not certain / LNP@Insig1/2 loop1 peptide, AUC(0-t): 4928±1425, small print, 9, 8 and 5 not certain / LNP@Insig1/2 loop1 peptide, AUC(0-∞): 4955±1422, small print, 9 and 5 not certain / LNP@Insig1/2 loop1 peptide, Cl: 0.0337±0.0191, small print, 3 and 9 not certain
The pharmacokinetic assay of Insig1/2 loop 1 peptide and LNP@ Insig1/2 loop 1 peptide was performed in ICR male mice. The male mice were administered intravenously (iv) at a dose of 10 mg kg^−1. Then, blood samples were collected into tubes containing EDTA at 0.083, 0.25, 0.5, 1, 2, 4, 8, 24 h (iv) after dosing. After centrifugation at 6000 rpm for 10 min at 4 °C, the obtained plasma samples were stored at ‐20 °C. Subsequently, the plasma samples were analyzed by liquid (LC‐MS/MS) chromatography‐tandem mass spectrometry analysis.

SREBP1 activity = test: SRE luciferase assay; assay type: cell-based, human; settings: Huh7 cells, peptide 15 µM 1 h, IGF1 100 ng/mL 14 h, normalized to β-galactosidase, n = 3

RKKRRQRRRLYPCIDSHLGEPHKFKRE [Insig1/2 loop 1 peptide]
AUC(0-t) [1]: 0.326 ± 0.0718 µg·h/mL
AUC(0-∞) [1]: 0.331 ± 0.073 µg·h/mL
Cl [1]: 31.1 ± 6.54 L/h/kg
Tlast [1]: 0.500 ± 0 h
SREBP1 activity (SRE luciferase) (SREBP1 activity): markedly inhibited
